≈ marks a conversion by molar mass, not a printed value. Where two headings read alike, the source gives them in different places. Where only a bound is given, the exact number is not on record here.

In general, IC50 refers to the concentration at which inhibition is half-maximal.

For one data set, the target named is Mtb AccD6 (Mycobacterium tuberculosis, UniProt P9WQH5). Briefly: biochemical. Particulars: 300 μM malonyl-CoA, inhibitor 10 μM to 2000 μM. The format is biochemical.
A further data set has as its system Mtb strain mc^2-7000. Briefly: microbe, parasite or virus in culture. Format: cell-based, Mycobacterium tuberculosis. Particulars: 6 days incubation at 37° C., resazurin, read on the 7th day.
The nature of data set [1]: Pharmacokinetic studies in mice, plasma concentration after gavage (LC/MS). Particulars: gavage.
[2] abbreviates: Mycobacterium tuberculosis, 144 h, read-out: MIC.

Sequence of Mtb AccD6 (P9WQH5 whole entry, looked up): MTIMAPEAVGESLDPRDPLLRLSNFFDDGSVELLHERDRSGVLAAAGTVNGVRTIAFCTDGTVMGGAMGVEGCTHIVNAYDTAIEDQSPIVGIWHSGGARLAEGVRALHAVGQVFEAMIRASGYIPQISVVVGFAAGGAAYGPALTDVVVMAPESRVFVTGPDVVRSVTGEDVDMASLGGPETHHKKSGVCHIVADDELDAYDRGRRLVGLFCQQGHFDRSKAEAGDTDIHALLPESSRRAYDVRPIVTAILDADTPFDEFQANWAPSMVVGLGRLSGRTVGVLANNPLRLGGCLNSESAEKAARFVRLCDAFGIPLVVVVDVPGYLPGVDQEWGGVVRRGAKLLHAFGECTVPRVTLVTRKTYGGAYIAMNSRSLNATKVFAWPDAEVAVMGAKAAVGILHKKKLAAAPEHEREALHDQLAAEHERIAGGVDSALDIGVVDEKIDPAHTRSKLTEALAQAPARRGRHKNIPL

Turning to `CONC(=O)C(C)c1ccc(Oc2nc3ccc(Cl)cc3s2)cc1` (racemic) [NZ-313, 2-{4-[(6-chloro-1,3-benzothiazol-2-yl)oxy]phenyl}-N-methoxypropanamide], the half-inhibitory concentration (IC50) at Mtb AccD6 (read-out: IC50) is 0.32 µM. The MIC with Mtb strain mc^2-7000 (setting [2]) was 0.38 µM (≈ 0.138 µg/mL). Also, the “concentrations at which not toxic, s. cerevisiae cytotoxicity” value in the data set on S. cerevisiae was at least 100 µM. Also, in the data set on human fibroblast, the “concentrations at which not toxic, human fibroblast cytotoxicity” value was at least 100 µM. For the same compound, in data set [1] (single dose 200 mg/kg, PEG, 90 minutes after gavage), the “peak plasma concentration (FIG. 8)” value amounted to 1. In data set [1] (two doses 100 mg/kg 4 hours apart, canola oil, 30 minutes after gavage), the “peak plasma concentration (FIG. 7)” value is on record as “approximately 0.69 μL/mg”.
Turning to `CC(C)NC(=O)Nc1ccc(Oc2nc3ccc(CO)cc3s2)cc1` [NZ-381, 1-(4-{[6-(hydroxymethyl)-1,3-benzothiazol-2-yl]oxy}phenyl)-3-(propan-2-yl)urea], at Mtb AccD6, the IC50 result is “Not Active”. Besides, the MIC in the data set on Mtb strain mc^2-7000 (setting [2]) was 7.3 µM (≈ 2.61 µg/mL). In the data set with S. cerevisiae, the “concentrations at which not toxic, s. cerevisiae cytotoxicity” value is at least 100 µM. In addition, the “concentrations at which not toxic, human fibroblast cytotoxicity” value in the data set on human fibroblast is at least 100 µM.
As to `CC(C)NC(=O)Nc1ccc(Oc2nc3cc(F)c(F)cc3s2)cc1` [NZ-382, 1-{4-[(5,6-difluoro-1,3-benzothiazol-2-yl)oxy]phenyl}-3-(propan-2-yl)urea], the IC50 on Mtb AccD6 (read-out: IC50) was in the range of 0.27 to 0.35 µM. Also, the MIC result in the data set with Mtb strain mc^2-7000 was “Not Active”. For the same compound, in the data set on S. cerevisiae, the “concentrations at which not toxic, s. cerevisiae cytotoxicity” value was in the range of 50 to 100 µM. Also, the “concentrations at which not toxic, human fibroblast cytotoxicity” value with human fibroblast was at least 100 µM.
With `CNC(=O)Cc1ccc(Oc2nc3ccc(Cl)cc3s2)cc1` [NZ-383, 2-{4-[(6-chloro-1,3-benzothiazol-2-yl)oxy]phenyl}-N-methylacetamide], the IC50 on Mtb AccD6 (read-out: IC50) was in the range of 0.8 to 1.17 µM. Moreover, in the data set with Mtb strain mc^2-7000 (setting [2]), the MIC was determined as 3.9 µM (≈ 1.3 µg/mL). Further, the “concentrations at which not toxic, s. cerevisiae cytotoxicity” value with S. cerevisiae was at least 100 µM. Also, the “concentrations at which not toxic, human fibroblast cytotoxicity” value in the data set on human fibroblast is at least 100 µM.
Consider `CNC(=O)Cc1ccc(Oc2nc3ccc(F)cc3s2)cc1` [NZ-385, 2-{4-[(6-fluoro-1,3-benzothiazol-2-yl)oxy]phenyl}-N-methylacetamide], for which the IC50 at Mtb AccD6 (read-out: IC50) stood at 0.87 µM. Further, the MIC in the data set with Mtb strain mc^2-7000 (setting [2]) is 3 µM (≈ 0.949 µg/mL). For the same compound, the “concentrations at which not toxic, s. cerevisiae cytotoxicity” value with S. cerevisiae is at least 100 µM. Moreover, the “concentrations at which not toxic, human fibroblast cytotoxicity” value in the data set with human fibroblast was at least 100 µM.
Take `CNC(=O)C(C)c1ccc(Oc2nc3ccc(F)cc3s2)cc1` (centres unmarked) [NZ-386, 2-{4-[(6-fluoro-1,3-benzothiazol-2-yl)oxy]phenyl}-N-methylpropanamide]: the IC50 at Mtb AccD6 (read-out: IC50) worked out at 0.62 µM. Besides, the MIC in the data set on Mtb strain mc^2-7000 (setting [2]) was in the range of 1.1 to 2.1 µM (≈ 0.363 to 0.694 µg/mL). Besides, the “concentrations at which not toxic, s. cerevisiae cytotoxicity” value with S. cerevisiae was at least 100 µM. In addition, in the data set on human fibroblast, the “concentrations at which not toxic, human fibroblast cytotoxicity” value is at least 100 µM.
Take `CNC(=O)C(C)c1ccc(Oc2nc3cc(F)c(F)cc3s2)cc1` (centres unmarked) [NZ-387, 2-{4-[(5,6-difluoro-1,3-benzothiazol-2-yl)oxy]phenyl}-N-methylpropanamide]: at Mtb AccD6 (read-out: IC50), the IC50 is 0.26 µM. For the same compound, in the data set on Mtb strain mc^2-7000 (setting [2]), the MIC was in the range of 2.7 to 8 µM (≈ 0.941 to 2.79 µg/mL). Also, the “concentrations at which not toxic, s. cerevisiae cytotoxicity” value in the data set on S. cerevisiae is at least 100 µM. Besides, the “concentrations at which not toxic, human fibroblast cytotoxicity” value in the data set with human fibroblast is at least 100 µM.
As to `CC(C)NC(=O)N(C)c1ccc(Oc2nc3ccc(Cl)cc3s2)cc1` [NZ-388, 1-{4-[(6-chloro-1,3-benzothiazol-2-yl)oxy]phenyl}-1-methyl-3-(propan-2-yl)urea], the IC50 at Mtb AccD6 (read-out: IC50) worked out at 3 µM. Besides, the MIC in the data set on Mtb strain mc^2-7000 (setting [2]) was determined as 2.1 µM (≈ 0.789 µg/mL). Moreover, the “concentrations at which not toxic, s. cerevisiae cytotoxicity” value with S. cerevisiae is at least 100 µM. Besides, in the data set on human fibroblast, the “concentrations at which not toxic, human fibroblast cytotoxicity” value was at least 100 µM.
As for `CNC(=O)Cc1ccc(Oc2nc3ccc(Cl)cc3s2)cc1O` [NZ-389, 2-{4-[(6-chloro-1,3-benzothiazol-2-yl)oxy]-2-hydroxyphenyl}-N-methylacetamide], at Mtb AccD6 (read-out: IC50), the 50% inhibitory concentration (IC50) amounted to 0.21 µM. For the same compound, in the data set on Mtb strain mc^2-7000 (setting [2]), the MIC was in the range of 1.2 to 2.2 µM (≈ 0.419 to 0.767 µg/mL). Besides, the “concentrations at which not toxic, s. cerevisiae cytotoxicity” value in the data set with S. cerevisiae was at least 100 µM. The “concentrations at which not toxic, human fibroblast cytotoxicity” value with human fibroblast was at least 100 µM.
Consider `CNC(=O)Cc1ccc(O)cc1Oc1nc2ccc(Cl)cc2s1` [NZ-390, 2-{2-[(6-chloro-1,3-benzothiazol-2-yl)oxy]-4-hydroxyphenyl}-N-methylacetamide], for which the IC50 on Mtb AccD6 (read-out: IC50) was 15.4 µM. Besides, in the data set on Mtb strain mc^2-7000, the MIC entry is “Not Active”. Further, the “concentrations at which not toxic, s. cerevisiae cytotoxicity” value in the data set on S. cerevisiae is at least 100 µM. For the same compound, the “concentrations at which not toxic, human fibroblast cytotoxicity” value in the data set on human fibroblast is at least 100 µM.
As to `CC(C)NC(=O)Nc1ccc(Oc2nc3ccc(Cl)cc3s2)c[n+]1[O-]` [NZ-391, 1-{5-[(6-chloro-1,3-benzothiazol-2-yl)oxy]-1-oxo-1λ^5-pyridin-2-yl}-3-(propan-2-yl)urea], on Mtb AccD6, the IC50 result was “Not Active”. Also, in the data set on Mtb strain mc^2-7000, the MIC result is “Not Active”. Besides, the “concentrations at which not toxic, s. cerevisiae cytotoxicity” value in the data set with S. cerevisiae was at least 100 µM. The “concentrations at which not toxic, human fibroblast cytotoxicity” value in the data set on human fibroblast was at least 100 µM.
`CNC(=O)Cc1ccc(Oc2nc3ccc(Cl)cc3s2)cc1OC` [NZ-392, 2-{4-[(6-chloro-1,3-benzothiazol-2-yl)oxy]-2-methoxyphenyl}-N-methylacetamide]: the concentration for half-maximal inhibition (IC50) on Mtb AccD6 (read-out: IC50) turned out to be 7.18 µM. In addition, the MIC in the data set on Mtb strain mc^2-7000 (setting [2]) worked out at 7.28 µM (≈ 2.64 µg/mL). In addition, the “concentrations at which not toxic, s. cerevisiae cytotoxicity” value with S. cerevisiae is at least 100 µM. Besides, the “concentrations at which not toxic, human fibroblast cytotoxicity” value with human fibroblast is at least 100 µM.
As to `CNC(=O)C(C)c1ccc(Oc2nc3cc(Cl)c(Cl)cc3s2)cc1` (centres unmarked) [NZ-394, 2-{4-[(5,6-dichloro-1,3-benzothiazol-2-yl)oxy]phenyl}-N-methylpropanamide], the IC50 on Mtb AccD6 (read-out: IC50) worked out at 0.98 µM. Also, the MIC result with Mtb strain mc^2-7000 is given as “Not active”. In addition, in the data set on S. cerevisiae, the “concentrations at which not toxic, s. cerevisiae cytotoxicity” value is at least 100 µM. Besides, the “concentrations at which not toxic, human fibroblast cytotoxicity” value in the data set with human fibroblast was at least 100 µM.
Consider `CNC(=O)Cc1ccc(Oc2nc3ccc(F)cc3s2)cc1O` [NZ-395, 2-{4-[(6-fluoro-1,3-benzothiazol-2-yl)oxy]-2-hydroxyphenyl}-N-methylacetamide], for which the IC50 at Mtb AccD6 (read-out: IC50) was 0.16 µM. Further, the MIC with Mtb strain mc^2-7000 (setting [2]) lay in the range of 0.6 to 0.9 µM (≈ 0.199 to 0.299 µg/mL). The “concentrations at which not toxic, s. cerevisiae cytotoxicity” value in the data set with S. cerevisiae was at least 100 µM. In addition, in the data set with human fibroblast, the “concentrations at which not toxic, human fibroblast cytotoxicity” value is at least 100 µM.
Take `COC(=O)Cn1ccc(Oc2nc3ccc(Cl)cc3s2)cc1=O` [NZ-396, methyl 2-{4-[(6-chloro-1,3-benzothiazol-2-yl)oxy]-2-oxo-1,2-dihydropyridin-1-yl}acetate]: on Mtb AccD6 (read-out: IC50), the half-inhibitory concentration (IC50) amounted to 11.3 µM. In addition, the MIC with Mtb strain mc^2-7000 (setting [2]) was in the range of 6.19 to 8.6 µM. For the same compound, the “concentrations at which not toxic, s. cerevisiae cytotoxicity” value in the data set on S. cerevisiae was at least 100 µM. Moreover, the “concentrations at which not toxic, human fibroblast cytotoxicity” value in the data set with human fibroblast is at least 100 µM.
Turning to `O=C(O)Cn1ccc(Oc2nc3ccc(Cl)cc3s2)cc1=O` [NZ-397, 2-{4-[(6-chloro-1,3-benzothiazol-2-yl)oxy]-2-oxo-1,2-dihydropyridin-1-yl}acetic acid], the IC50 at Mtb AccD6 (read-out: IC50) stood at 0.45 µM. The MIC result with Mtb strain mc^2-7000 was “Not Active”. Further, in the data set with S. cerevisiae, the “concentrations at which not toxic, s. cerevisiae cytotoxicity” value was at least 100 µM. Also, in the data set on human fibroblast, the “concentrations at which not toxic, human fibroblast cytotoxicity” value is at least 100 µM.
On to `COC(=O)Cc1ccc(Oc2nc3cc(F)c(F)cc3s2)cc1` [NZ-398, methyl 2-{4-[(5,6-difluoro-1,3-benzothiazol-2-yl)oxy]phenyl}acetate], for which the half-maximal inhibitory concentration (IC50) at Mtb AccD6 (read-out: IC50) came out at 3.6 µM. In the data set on Mtb strain mc^2-7000 (setting [2]), the MIC amounted to 0.89 µM. For the same compound, in the data set on S. cerevisiae, the “concentrations at which not toxic, s. cerevisiae cytotoxicity” value was at least 100 µM. The “concentrations at which not toxic, human fibroblast cytotoxicity” value in the data set on human fibroblast is at least 100 µM.
In the case of `O=C(O)Cc1ccc(Oc2nc3cc(F)c(F)cc3s2)cc1` [NZ-399, 2-{4-[(5,6-difluoro-1,3-benzothiazol-2-yl)oxy]phenyl}acetic acid], the IC50 on Mtb AccD6 (read-out: IC50) amounted to 0.18 µM. In addition, in the data set on Mtb strain mc^2-7000 (setting [2]), the MIC worked out at 1.36 µM (≈ 0.437 µg/mL). Further, the “concentrations at which not toxic, s. cerevisiae cytotoxicity” value with S. cerevisiae is at least 100 µM. For the same compound, the “concentrations at which not toxic, human fibroblast cytotoxicity” value in the data set on human fibroblast was at least 100 µM.
`CNC(=O)Cc1ccc(Oc2nc3cc(F)c(F)cc3s2)cc1` [NZ-400, 2-{4-[(5,6-difluoro-1,3-benzothiazol-2-yl)oxy]phenyl}-N-methylacetamide]: the IC50 at Mtb AccD6 (read-out: IC50) is 0.21 µM. Besides, the MIC in the data set on Mtb strain mc^2-7000 (setting [2]) is 0.61 µM (≈ 0.204 µg/mL). Besides, the “concentrations at which not toxic, s. cerevisiae cytotoxicity” value with S. cerevisiae is at least 100 µM. The “concentrations at which not toxic, human fibroblast cytotoxicity” value in the data set with human fibroblast is at least 100 µM.
`CNC(=O)Cc1ccc(Oc2nc3cc(F)c(F)cc3s2)cc1O` [NZ-401, 2-{4-[(5,6-difluoro-1,3-benzothiazol-2-yl)oxy]-2-hydroxyphenyl}-N-methylacetamide]: on Mtb AccD6 (read-out: IC50), the half-inhibitory concentration (IC50) was 0.12 µM. Also, the MIC in the data set with Mtb strain mc^2-7000 (setting [2]) came to 0.54 µM (≈ 0.189 µg/mL). Moreover, the “concentrations at which not toxic, s. cerevisiae cytotoxicity” value in the data set on S. cerevisiae was at least 100 µM. Moreover, the “concentrations at which not toxic, human fibroblast cytotoxicity” value in the data set on human fibroblast was at least 100 µM.
Turning to `CNC(=O)Cc1ccc(Oc2cnc3cc(Cl)ccc3n2)cc1O` [NZ-402, 2-{4-[(6-chloroquinoxalin-2-yl)oxy]-2-hydroxyphenyl}-N-methylacetamide], the IC50 at Mtb AccD6 (read-out: IC50) turned out to be 0.21 µM. For the same compound, the MIC in the data set with Mtb strain mc^2-7000 (setting [2]) turned out to be 2.16 µM (≈ 0.743 µg/mL). Also, the “concentrations at which not toxic, s. cerevisiae cytotoxicity” value with S. cerevisiae was at least 100 µM. In the data set on human fibroblast, the “concentrations at which not toxic, human fibroblast cytotoxicity” value was at least 100 µM.

(Values after patent US10300071B2, “Compositions and methods for inhibition of mycobacteria” (priority 2014, dated 2019).)
